Patent US7312246B2, “Proteomimetic compounds and methods” (Yale University, priority 2001, dated 2007)
pIC50, pKd: −log10 of the molar value. Values belong to the compound of their own block, whether it stands above or below them.

Columns and labels:
Solubility in buffer = type: physicochemical; settings: buffer with <1% DMSO
Excerpt: For synthetic simplicity we changed the indole of Trp800 to phenyl and removed the hydroxyl of Thr803. Using Negishi couplings of differently substituted phenyltriflates, we prepared terphenyl a as a mimic of the calmodulin binding face of smMLCK.

calmodulin (CaM) [1] = molecular target: T1, calmodulin (CaM) (Homo sapiens, UniProt P0DP23); test: Avidin-based affinity resin derivatized with biotinylated CaM: retention of compound; type: binding
Excerpt: Discrete complex formation to CaM was indicated by the release of a from the column, as monitored by HPLC, on elution with […] biotin. […] To amplify the binding event between CaM and a, an enzymatic assay was also employed.

calmodulin (CaM) [2] = molecular target: T1, calmodulin (CaM); test: Antagonism of CaM activation of phosphodiesterase (PDE), monitored by hydrolysis of mant-cGMP; type: biochemical; settings: for pIC50: 13.9 nM CaM, 50 mu/ml PDE, 8 μM mant-cGMP, pH 7.0, read-out: IC50, inhibition of CaM activation of PDE
Protocol: 13.9 nM CaM, 50 mu/ml PDE, 8 μM mant-cGMP, 10 mM Mops, 0.5 mM MgCl2, 90 mM KCl, 0.73 mM CaCl2, 0.2% DMSO, pH 7.0.

[3] = molecular target: T2, gp41 core model (N36/C34 six helix bundle) (Human immunodeficiency virus type 1 group M subtype B, UniProt P04578); type: binding, HIV-1; settings: 10 μM gp41 core model, 50 mM PBS, 150 mM NaCl, pH 7.0, 4° C.
T2 construct: two peptides (N36 and C34), from the N and C heptad repeat regions of gp41; purchased HHMI Biopolymer/Keck Foundation Biotechnology Resource Center, Yale University School of Medicine; host or cells: synthetic peptides
T2 sequence (P04578 546-581): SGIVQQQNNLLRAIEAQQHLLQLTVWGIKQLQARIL
Excerpt: Spectra were corrected by the subtraction of a blank corresponding to the solvent composition of each sample.

calmodulin (CaM) [4] = molecular target: T1, calmodulin (CaM); test: Polyacrylamide gel permeation chromatography (6 kD cutoff) with and without CaM; type: binding; settings: 70 μM in buffer
Bcl-xL = Bcl-xL (Homo sapiens, UniProt Q07817); test: Fluorescence polarization assay: displacement of fluorescein-labeled 16-mer Bak-peptide from Bcl-xL; type: binding; settings: for binding affinity for Bcl-xL (in words): compared with m
Chain of Bcl-xL (Q07817 whole entry): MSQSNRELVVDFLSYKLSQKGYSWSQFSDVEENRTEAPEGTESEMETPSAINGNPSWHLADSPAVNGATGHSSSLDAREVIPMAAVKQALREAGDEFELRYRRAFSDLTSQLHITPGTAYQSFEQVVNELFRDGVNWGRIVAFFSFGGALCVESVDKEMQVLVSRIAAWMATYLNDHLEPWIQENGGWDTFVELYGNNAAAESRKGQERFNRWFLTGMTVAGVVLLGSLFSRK
Protocol: Based on these structural requirements we designed a series of terphenyl molecules (k-n) containing alkyl or aryl substituents on the three ortho positions (to mimic the key i, i+3, and i+7 groups in Bak or Bad) and carboxylic acid substituents on either end (to mimic the additional ion pair) (FIG. 17). The binding affinity of these molecules for Bcl-xL was assessed by a fluorescence polarization assay using fluoresceine-labeled 16-mer Bak-peptide. Displacement of this probe through competitive binding of the terphenyl into the hydrophobic cleft of BCl-xL would lead to a decrease in its fluorescence polarization which in turn could be related to the known affinity of the 16-mer Bak/Bcl-xL complex.

Compound: CCc1cc(-c2ccc(OCC(=O)O)cc2C(C)C)ccc1-c1cccc(Cc2ccccc2)c1.N [48.NH4, Ammonium (3-benzyl-2′-ethyl-2″-isopropyl-[1,1′:4′,1″]terphenyl-4″-yloxy)-acetate]
solubility in buffer (Solubility in buffer): surprisingly soluble in buffer with <1% DMSO

Compound: CCc1cc(-c2ccc(OCC(=O)O)cc2C(C)C)ccc1-c1cccc(Cc2ccccc2)c1 [a, (3-Benzyl-2′-ethyl-2″-isopropyl-[1,1′:4′,1″]terphenyl-4″-yloxy)-acetic acid]
retention on avidin affinity resin derivatized with biotinylated CaM (calmodulin (CaM) [1]; CaM-derivatized resin): retention of the terphenyl on the column
retention on underivatized avidin resin (control experiment) (calmodulin (CaM) [1]; underivatized avidin resin): no observable retention
pIC50 (calmodulin (CaM) [2]): 6.10
inhibitory potency, fold less than RS20 (calmodulin (CaM) [2]; relative to 20-mer peptide RS20): 10 fold

pIC50 (calmodulin (CaM) [2]): 8.05
potency, fold improvement over RS20 (calmodulin (CaM) [2]; relative to helical peptide RS20): 8 fold
Compound: CCc1cc(-c2ccc(OCC(=O)O)cc2C(C)C)ccc1-c1cccc(Cc2cccc3ccccc23)c1 [b, (2′-Ethyl-2″-isopropyl-3-naphthalen-1-ylmethyl-[1,1′:4′,1″]terphenyl-4″-yloxy)-acetic acid]

pIC50 (calmodulin (CaM) [2]): 7.70
Compound: CCc1cc(-c2ccc(OCC(=O)O)cc2C(C)C)ccc1-c1cccc(Cc2ccc3ccccc3c2)c1 [c, (2′-Ethyl-2″-isopropyl-3-naphthalen-2-ylmethyl-[1,1′:4′,1″]terphenyl-4″-yloxy)-acetic acid]

Compound: CC(C)Cc1cc(-c2ccc(-c3ccc(CCCN)cc3CC(C)C)cc2C(C)C)ccc1OCCN.Cl.Cl [g, 3-[4″-(2-aminoethoxy)-2,3″-diisobutyl-3′-isopropyl-1,1′:4′,1″-terphenyl-4-yl]propan-1-amine dihydrochloride]
effect on CD spectrum of gp41 core model (helicity of the hexameric bundle) [3]: little effect on the protein CD spectrum even at high concentrations
behaviour on gel permeation column, compound alone (calmodulin (CaM) [4]; alone): retained on the column
behaviour on gel permeation column, mixed with one equivalent of CaM (calmodulin (CaM) [4]; one equivalent of CaM): passed through

Compound: O=C(O)CCc1ccc(-c2ccc(OCC(=O)O)cc2)cc1 [i, 3-[4′-(carboxymethoxy)-1,1′-biphenyl-4-yl)propanoic acid]
effect on CD spectrum of gp41 core model (helicity of the hexameric bundle) [3]: little effect on the protein CD spectrum even at high concentrations

Compound: CC(C)Cc1cc(CCC(=O)O)ccc1-c1ccc(-c2ccc(OCC(=O)O)c(Cc3ccccc3)c2)c(Cc2ccccc2)c1 [j, 3-(3′,3″-dibenzyl-4″-(carboxymethoxy)-2-isobutyl-1,1′:4′,1″-terphenyl-4-yl)propanoic acid]
effect on CD spectrum of gp41 core model (helicity of the hexameric bundle) [3]: modest enhancement in activity compared to f

binding affinity for Bcl-xL (in words) (Bcl-xL): less binding affinity
Compound: CC(C)Cc1cc(-c2ccc(-c3ccc(CCC(=O)O)cc3CC(C)C)cc2Cc2ccccc2)ccc1OCC(=O)O [l, 3-(3′-Benzyl-4″-(carboxymethoxy)-2,3″-diisobutyl-1,1′4″1″-terphenyl-4-yl)propanoic acid]

pKd (Bcl-xL; related to known affinity of 16-mer Bak/Bcl-xL complex, read-out: KD-value, binding to Bcl-xL): 6.94
Compound: CC(C)Cc1cc(-c2ccc(-c3ccc(CCC(=O)O)cc3CC(C)C)cc2Cc2cccc3ccccc23)ccc1OCC(=O)O [m, 3-(4-(Carboxymethoxy)-3,2″-diisobutyl-2′-naphthalen-1-ylmethyl-[1,1′:4′,1″]-terphenyl-4″-yl)propionic acid]

binding affinity for Bcl-xL (in words) (Bcl-xL): significant loss in binding affinity
Compound: CC(C)Cc1cc(CCC(=O)O)ccc1-c1ccc(-c2ccc(OCC(=O)O)c(Cc3cccc4ccccc34)c2CC(C)C)cc1 [n, 3-(4-(Carboxymethoxy)-2,2″-diisobutyl-3-naphthalen-1-ylmethyl-[1,1′:4′,1″]-terphenyl-4″-yl)propionic acid]

Compound: Bis methyl 3-(1,1′:4′,1″-terphenyl-4,4″-yl)propanoic acid
effect on CD spectrum of gp41 core model (helicity of the hexameric bundle) [3]: little effect on the protein CD spectrum even at high concentrations
